“And” between values parts separate entries of the source, which are not always exact repeats. Identical values can stand only once. Toxic doses and inconclusive results are not listed. Numbered stars: 1 amine (or outer) side, 2 acyl side, 3 side chain; on linkers, the order of the positions; unused ones are H or OH. Bridge positions count the residues as written; N and C are the ends. Square brackets hold non-standard residues; d marks the D form. Peptide text beside a SMILES is read from it. I, II: the chains in the order shown. Actinocin(9to1) = Cc1c2oc3c(C)ccc(C(=O)[*:1])c3nc-2c(C(=O)[*:2])c(N)c1=O; X2 = O=C(C1CC(Cl)CN1[*:1])[*:2]; NMeV = CN[CH](C(=O)O)C(C)C; Sar = CNCC(=O)O
Test system: BDF1 mice, B16 melanoma ip, median survival T/C
Test: NCI In Vivo Anticancer Drug Screen. Data for tumor model B16 Melanoma (intraperitoneal) in B6D2F1 (BDF1) mice
Settings: endpoint: median survival time, higher = longer survival
In short: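 Tumor-bearing mice received test compound or vehicle. Survival or tumor size was then measured in both groups. The treated-group figure was divided by the control-group figure.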

[1] = dose: 12.5 mg/kg/injection, schedule: Q01DX009 (ip), vehicle: Klucel (hydroxypropylcellulose) (HPC)
[2] = dose: 25.0 mg/kg/injection, schedule: Q01DX009 (ip), vehicle: Klucel (hydroxypropylcellulose) (HPC)
[3] = dose: 6.25 mg/kg/injection, schedule: Q01DX009 (ip), vehicle: saline with Tween-80
[4] = dose: 12.5 mg/kg/injection, schedule: Q01DX009 (ip), vehicle: saline with Tween-80
[5] = dose: 25.0 mg/kg/injection, schedule: Q01DX009 (ip), vehicle: saline with Tween-80
[6] = dose: 50.0 mg/kg/injection, schedule: Q01DX009 (ip), vehicle: saline
[7] = dose: 100.0 mg/kg/injection, schedule: Q01DX009 (ip), vehicle: saline
[8] = dose: 200.0 mg/kg/injection, schedule: Q01DX009 (ip), vehicle: saline
[9] = dose: 400.0 mg/kg/injection, schedule: Q01DX009 (ip), vehicle: saline
[10] = dose: 50.0 mg/kg/injection, schedule: Q01DX009 (ip), vehicle: Klucel (hydroxypropylcellulose) (HPC)

Oc1ccc(SCc2ccc(NCc3ccccc3)cc2)cc1
T/C (dose: 12.5 mg/kg/injection, schedule: Q01DX009 (ip), vehicle: other): 92 % of control | T/C (dose: 12.5 mg/kg/injection, schedule: Q01DX009 (ip), vehicle: saline + alcohol): 105 % of control | T/C (dose: 25.0 mg/kg/injection, schedule: Q01DX009 (ip), vehicle: other): 97 % of control | T/C (dose: 25.0 mg/kg/injection, schedule: Q01DX009 (ip), vehicle: saline + alcohol): 103 % of control | T/C (dose: 50.0 mg/kg/injection, schedule: Q01DX009 (ip), vehicle: other): 102 % of control | T/C (dose: 50.0 mg/kg/injection, schedule: Q01DX009 (ip), vehicle: saline + alcohol): 99 % of control | T/C (dose: 100.0 mg/kg/injection, schedule: Q01DX009 (ip), vehicle: other): 104 % of control | T/C (dose: 100.0 mg/kg/injection, schedule: Q01DX009 (ip), vehicle: saline + alcohol): 107 % of control | T/C (dose: 200.0 mg/kg/injection, schedule: Q01DX009 (ip), vehicle: other): 102 % of control | T/C (dose: 200.0 mg/kg/injection, schedule: Q01DX009 (ip), vehicle: saline + alcohol): 103 % of control | T/C (dose: 400.0 mg/kg/injection, schedule: Q01DX009 (ip), vehicle: other): 96 % of control | T/C (dose: 400.0 mg/kg/injection, schedule: Q01DX009 (ip), vehicle: saline + alcohol): 99 % of control

CCCCNC(C)[C@]1(O)Cc2c(O)c3c(c(O)c2[C@@H](OC2CC(N)C(O)C(C)O2)C1)C(=O)c1c(OC)cccc1C3=O (some centres undefined)
T/C (dose: 4.7 mg/kg/injection, schedule: Q01DX001 (ip), vehicle: water): 185 % of control and 198 % of control | T/C (dose: 9.4 mg/kg/injection, schedule: Q01DX001 (ip), vehicle: water): 185 % of control and 215 % of control and 270 % of control | T/C (dose: 18.8 mg/kg/injection, schedule: Q01DX001 (ip), vehicle: water): 197 % of control and 222 % of control and 263 % of control | T/C (dose: 37.5 mg/kg/injection, schedule: Q01DX001 (ip), vehicle: water): 106 % of control

CCCc1c(Cl)nc(Cl)nc1Cl
T/C (dose: 6.25 mg/kg/injection, schedule: Q01DX009 (ip), vehicle: Klucel (hydroxypropylcellulose) (HPC)): 110 % of control | T/C [1]: 103 % of control | T/C [2]: 101 % of control and 109 % of control

C1COC(NC2CC3CCC2C3)=N1 (centres undefined)
T/C [3]: 107 % of control | T/C [4]: 100 % of control | T/C [5]: 100 % of control

Oc1ccc(C2(c3ccc(O)cc3)CCCCC2)cc1
T/C (dose: 50.0 mg/kg/injection, schedule: Q01DX009 (ip), vehicle: acetone): 97 % of control

COC(=O)C(CCCCN=Cc1ccccc1O)N=Cc1ccccc1O.[Ni] (centres undefined)
T/C [3]: 100 % of control | T/C [4]: 90 % of control | T/C (dose: 12.5 mg/kg/injection, schedule: Q04DX003 (ip), vehicle: saline with Tween-80): 95 % of control | T/C [5]: 95 % of control | T/C (dose: 25.0 mg/kg/injection, schedule: Q04DX003 (ip), vehicle: saline with Tween-80): 93 % of control

NC(CCC(=O)NC(CS)C(=O)NCC(=O)O)C(=O)O (centres undefined)
T/C [6]: 124 % of control | T/C [7]: 98 % of control | T/C [8]: 98 % of control | T/C [9]: 100 % of control

CC(C(=O)O)C(=O)O.[NH-]CC[NH-].[Pt+2]
T/C (dose: 3.12 mg/kg/injection, schedule: Q01DX009 (ip), vehicle: water): 150 % of control | T/C (dose: 6.25 mg/kg/injection, schedule: Q01DX009 (ip), vehicle: water): 162 % of control | T/C (dose: 12.5 mg/kg/injection, schedule: Q01DX009 (ip), vehicle: water): 179 % of control | T/C (dose: 25.0 mg/kg/injection, schedule: Q01DX009 (ip), vehicle: water): 211 % of control

CC(N)(Cc1ccc(O)c(O)c1)C(=O)O (centres undefined)
T/C [6]: 115 % of control | T/C [7]: 100 % of control | T/C [8]: 107 % of control | T/C [9]: 110 % of control

Cc1c2oc3c(C)ccc(C(=O)NC4C(=O)NC(C(C)C)C(=O)N5CC(Cl)CC5C(=O)N(C)CC(=O)N(C)C(C(C)C)C(=O)OC4C)c3nc-2c(C(=O)NC2C(=O)NC(C(C)C)C(=O)N3CC(Cl)CC3C(=O)N(C)CC(=O)N(C)C(C(C)C)C(=O)OC2C)c(N)c1=O (centres undefined) (I: TV[X2][Sar][NMeV] / II: TV[X2][Sar][NMeV]; ester I:1-I:C, II:1-II:C; linker I:N-II:N via Actinocin(9to1); configuration not given here)
T/C (dose: 1080.0 micrograms/kg/injection, schedule: Q04DX003 (ip), vehicle: saline + alcohol): 159 % of control | T/C (dose: 1800.0 micrograms/kg/injection, schedule: Q04DX003 (ip), vehicle: saline + alcohol): 160 % of control

O=C(CCBr)N1CCN(C(=O)CCBr)CC1
T/C (dose: 2.5 mg/kg/injection, schedule: Q01DX009 (ip), vehicle: saline with Tween-80): 100 % of control | T/C (dose: 5.0 mg/kg/injection, schedule: Q01DX009 (ip), vehicle: saline with Tween-80): 102 % of control | T/C (dose: 5.0 mg/kg/injection, schedule: Q01DX009 (ip), vehicle: saline): 109 % of control | T/C (dose: 10.0 mg/kg/injection, schedule: Q01DX009 (ip), vehicle: saline with Tween-80): 104 % of control | T/C (dose: 10.0 mg/kg/injection, schedule: Q01DX009 (ip), vehicle: saline): 111 % of control and 117 % of control | T/C (dose: 20.0 mg/kg/injection, schedule: Q01DX009 (ip), vehicle: saline with Tween-80): 116 % of control | T/C (dose: 20.0 mg/kg/injection, schedule: Q01DX009 (ip), vehicle: saline): 119 % of control | T/C (dose: 40.0 mg/kg/injection, schedule: Q01DX009 (ip), vehicle: saline with Tween-80): 122 % of control

CCCC1=NNc2n[nH]c(=S)n2N1
T/C [1]: 106 % of control | T/C [2]: 112 % of control | T/C [10]: 87 % of control

C[C@]12CCC(=O)C=C1CC[C@@H]1[C@@H]2C(=O)C[C@@]2(C)[C@H]1CC[C@]2(O)C(=O)CO
T/C (dose: 40.0 mg/kg/injection, schedule: Q02DX009 (ip), vehicle: Klucel (hydroxypropylcellulose) (HPC)): 100 % of control | T/C (dose: 80.0 mg/kg/injection, schedule: Q02DX009 (ip), vehicle: Klucel (hydroxypropylcellulose) (HPC)): 112 % of control | T/C (dose: 160.0 mg/kg/injection, schedule: Q02DX009 (ip), vehicle: Klucel (hydroxypropylcellulose) (HPC)): 97 % of control | T/C (dose: 640.0 mg/kg/injection, schedule: Q02DX009 (ip), vehicle: Klucel (hydroxypropylcellulose) (HPC)): 97 % of control

COC(=O)N1CC=CCN1C(=O)OC
T/C (dose: 100.0 mg/kg/injection, schedule: Q04DX003 (ip), vehicle: saline with Tween-80): 102 % of control | T/C (dose: 200.0 mg/kg/injection, schedule: Q04DX003 (ip), vehicle: saline with Tween-80): 102 % of control | T/C (dose: 400.0 mg/kg/injection, schedule: Q04DX003 (ip), vehicle: saline with Tween-80): 94 % of control

Cc1c(Cl)cccc1NC(=O)c1ccc(Cl)cc1Cl
T/C (dose: 100.0 mg/kg/injection, schedule: Q04DX003 (ip), vehicle: Klucel (hydroxypropylcellulose) (HPC)): 95 % of control | T/C (dose: 200.0 mg/kg/injection, schedule: Q04DX003 (ip), vehicle: Klucel (hydroxypropylcellulose) (HPC)): 102 % of control | T/C (dose: 400.0 mg/kg/injection, schedule: Q04DX003 (ip), vehicle: Klucel (hydroxypropylcellulose) (HPC)): 100 % of control

O=C(O)c1ccccc1C(=O)Nc1ccc([N+](=O)[O-])cc1Cl
T/C [10]: 93 % of control | T/C (dose: 100.0 mg/kg/injection, schedule: Q01DX009 (ip), vehicle: Klucel (hydroxypropylcellulose) (HPC)): 100 % of control | T/C (dose: 200.0 mg/kg/injection, schedule: Q01DX009 (ip), vehicle: Klucel (hydroxypropylcellulose) (HPC)): 96 % of control

CCC1=C[C@H]2CN(CCc3c([nH]c4ccccc34)[C@@](C(=O)OC)(c3cc4c(cc3OC)N(C)[C@H]3[C@@](O)(C(=O)OC)[C@H](OC(C)=O)[C@]5(CC)C=CCN6CC[C@]43[C@@H]65)C2)C1
T/C (dose: 0.05 mg/kg/injection, schedule: Q01DX009 (ip), vehicle: saline): 116 % of control | T/C (dose: 0.06 mg/kg/injection, schedule: Q01DX009 (ip), vehicle: water): 100 % of control and 107 % of control | T/C (dose: 0.1 mg/kg/injection, schedule: Q01DX009 (ip), vehicle: saline): 116 % of control | T/C (dose: 0.13 mg/kg/injection, schedule: Q01DX009 (ip), vehicle: water): 103 % of control and 120 % of control | T/C (dose: 0.25 mg/kg/injection, schedule: Q01DX009 (ip), vehicle: water): 108 % of control | T/C (dose: 0.8 mg/kg/injection, schedule: Q01DX009 (ip), vehicle: saline): 181 % of control | T/C (dose: 1.6 mg/kg/injection, schedule: Q01DX009 (ip), vehicle: saline): 208 % of control | T/C (dose: 4.0 mg/kg/injection, schedule: Q04DX003 (ip), vehicle: water): 175 % of control

Source: PubChem BioAssay AID192 (DTP/NCI, 2004)
